Read-outs that look alike come from different tables or passages of the source.
Tested on: HBV
Assay: HBV-DNA Antiviral Assay Using HepG2.2.15 Cells (extracellular HBV DNA by qPCR)
Format: cell-based, hepatitis B virus (HBV)
Conditions: HBV DNA inhibition, HepG2.2.15 cells, extracellular HBV DNA by qPCR, read-out: EC50
How it was run: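 HepG2.2.15 cells were treated on day 1 with 8 concentrations (4-fold dilutions, duplicate; 0.5% DMSO), with compound-containing medium refreshed on day 4, at 37 °C. On day 7, supernatant HBV DNA was measured by qPCR against a plasmid standard curve, with inhibition normalised between DMSO and ETV controls. EC50/EC90 and CC50 (CellTiter-Glo ATP) came from variable-slope fits.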

Compound | EC50 (Hepatitis B virus) | EC50
Cc1c(C(=O)C(=O)NC2(C#C[C@@H](C)O)COC2)c(C)n(C)c1C(=O)Nc1ccc(F)c(C#N)c1 [Compound 94a, N-(3-cyano-4-fluoro-phenyl)-1,3,5-trimethyl-4-[2-oxo-2-[[3-[(3R)-3-hydroxybut-1-ynyl]oxetan-3-yl]amino]acetyl]pyrrole-2-carboxamide] | 0.01 to 0.1 µM | 
C#C[C@](C)(NC(=O)C(=O)c1c(C)c(C(=O)Nc2ccc(F)c(C#N)c2)n(C)c1C)C(F)(F)F [Compound 79b, N-(3-cyano-4-fluoro-phenyl)-1,3,5-trimethyl-4-[2-oxo-2-[[(1S)-1-methyl-1-(trifluoromethyl)prop-2-ynyl]amino]acetyl]pyrrole-2-carboxamide] | 0.001 to 0.01 µM | 
C=C[C@@](C)(CO)NC(=O)C(=O)c1c(C)c(C(=O)Nc2ccc(F)c(C(F)(F)F)c2)n(C)c1C [Compound 69b, N-[4-fluoro-3-(trifluoromethyl)phenyl]-1,3,5-trimethyl-4-[2-oxo-2-[[(1S)-1-(hydroxymethyl)-1-methyl-allyl]amino]acetyl]pyrrole-2-carboxamide] | 0.001 to 0.01 µM | 
Cc1c(C(=O)C(=O)NC2(c3cn(C4CC4)nn3)CC(F)(F)C2)c(C)n(C)c1C(=O)Nc1ccc(F)c(C(F)(F)F)c1 [Compound 146, 4-[2-[[1-(1-cyclopropyltriazol-4-yl)-3,3-difluoro-cyclobutyl]amino]-2-oxo-acetyl]-N-[4-fluoro-3-(trifluoromethyl)phenyl]-1,3,5-trimethyl-pyrrole-2-carboxamide] |  | 0.001 to 0.01 µM
C=C[C@@](C)(CO)NC(=O)C(=O)c1c(C)c(C(=O)Nc2ccc(F)c(C#N)c2)n(C)c1C [Compound 72b, N-(3-cyano-4-fluoro-phenyl)-1,3,5-trimethyl-4-[2-oxo-2-[[(1S)-1-(hydroxymethyl)-1-methyl-allyl]amino]acetyl]pyrrole-2-carboxamide] | 0.001 to 0.01 µM | 
C#CC1(NC(=O)C(=O)c2c(C)c(C(=O)Nc3ccc(F)c(C(F)F)c3)n(C)c2C)CC(F)(F)C1 [Compound 82, N-[3-(difluoromethyl)-4-fluoro-phenyl]-4-[2-[(1-ethynyl-3,3-difluoro-cyclobutyl)amino]-2-oxo-acetyl]-1,3,5-trimethyl-pyrrole-2-carboxamide] | 0.001 to 0.01 µM | 
C=CCNC(=O)C(=O)c1cn(C)c(C(=O)Nc2ccc(F)c(C#N)c2)c1F [Compound 7, 4-[2-(allylamino)-2-oxo-acetyl]-N-(3-cyano-4-fluoro-phenyl)-3-fluoro-1-methyl-pyrrole-2-carboxamide] | 0.1 to 1 µM | 
Cc1c(C(=O)C(=O)NC(C)(C)c2cnn(C3CC3)c2)c(C)n(C)c1C(=O)Nc1ccc(F)c(C#N)c1 [Compound 135, N-(3-cyano-4-fluoro-phenyl)-4-[2-[[1-(1-cyclopropylpyrazol-4-yl)-1-methyl-ethyl]amino]-2-oxo-acetyl]-1,3,5-trimethyl-pyrrole-2-carboxamide] | 0.001 to 0.01 µM | 
C#CC1(NC(=O)C(=O)c2c(C)c(C(=O)Nc3ccnc(Br)c3F)n(C)c2C)COC1 [Compound 83, N-(2-bromo-3-fluoro-4-pyridyl)-4-[2-[(3-ethynyloxetan-3-yl)amino]-2-oxo-acetyl]-1,3,5-trimethyl-pyrrole-2-carboxamide] | 0.001 to 0.01 µM | 
C#CC1(NC(=O)C(=O)c2c(C)c(C(=O)Nc3ccc(F)c(C#N)c3)n(C)c2C)CCC1 [Compound 15, N-(3-cyano-4-fluoro-phenyl)-4-[2-[(1-ethynylcyclobutyl)amino]-2-oxo-acetyl]-1,3,5-trimethyl-pyrrole-2-carboxamide] | < 0.001 µM | 
Cc1c(C(=O)C(=O)NC(C)(C)c2ccc(F)cn2)c(C)n(C)c1C(=O)Nc1ccc(F)c(C#N)c1 [Compound 145, N-(3-cyano-4-fluoro-phenyl)-4-[2-[[1-(5-fluoro-2-pyridyl)-1-methyl-ethyl]amino]-2-oxo-acetyl]-1,3,5-trimethyl-pyrrole-2-carboxamide] | 0.001 to 0.01 µM | 
C=C[C@](C)(NC(=O)C(=O)c1c(C)c(C(=O)Nc2ccc(F)c(C#N)c2)n(C)c1C)C(F)(F)F [Compound 95b, N-(3-cyano-4-fluoro-phenyl)-1,3,5-trimethyl-4-[2-oxo-2-[[(1S)-1-methyl-1-(trifluoromethyl)allyl]amino]acetyl]pyrrole-2-carboxamide] | 0.001 to 0.01 µM | 
C#CC1(NC(=O)C(=O)c2c(C)c(C(=O)Nc3ccc(F)c(C(F)(F)F)c3)n(C)c2C)COC1 [Compound 34, 4-[2-[(3-ethynyloxetan-3-yl)amino]-2-oxo-acetyl]-N-[4-fluoro-3-(trifluoromethyl)phenyl]-1,3,5-trimethyl-pyrrole-2-carboxamide] | < 0.001 µM | 
